From the NIST ThermoML archive (doi:10.1021/acs.jced.5b01024)
± gives the expanded uncertainty stated by the source.

Experiment: refractive index (Na D-line) (dimensionless)
Settings: 294.15 K; 100 kPa; Liquid; Standard Abbe refractometry

refractive index | Compound
1.3846 ± 0.00042 | CCCO [propan-1-ol]
1.39782 ± 0.00042 | CCCCO [butan-1-ol]
1.33285 ± 0.00042 | O [water]
